Reference: publication PMC9266460, “KSK-74: Dual Histamine H3 and Sigma-2 Receptor Ligand with Anti-Obesity Potential” (International Journal of Molecular Sciences, 2022)

Assays:
[1] = design: method as in PMID 15447739; conditions: cited from earlier work
mice fed a high-fat diet = system: mice fed a high-fat diet; design: method as in PMID 15447739; conditions: highest dose; cited from earlier work
sigma-1 receptor = target: sigma-1 receptor; design: method as in PMID 34908391; conditions: Figure 1; read-out: σ1R Ki; cited from earlier work
[2] = system: rats fed a palatable diet; conditions: cited from earlier work; for inhibition of weight gain: model of excessive eating
sigma-2 receptor = target: sigma-2 receptor; design: method as in PMID 34908391; conditions: Figure 1; read-out: σ2R Ki; cited from earlier work
H3R = target: T1, H3R (Homo sapiens, UniProt Q9Y5N1); assay: Affinity at the H3R (literature values); format: binding; conditions: H3R Ki relative to sigma-2 Ki
T1 construct: the Aequoscreen line co-expresses apoaequorin
T1 sequence (Q9Y5N1 whole entry): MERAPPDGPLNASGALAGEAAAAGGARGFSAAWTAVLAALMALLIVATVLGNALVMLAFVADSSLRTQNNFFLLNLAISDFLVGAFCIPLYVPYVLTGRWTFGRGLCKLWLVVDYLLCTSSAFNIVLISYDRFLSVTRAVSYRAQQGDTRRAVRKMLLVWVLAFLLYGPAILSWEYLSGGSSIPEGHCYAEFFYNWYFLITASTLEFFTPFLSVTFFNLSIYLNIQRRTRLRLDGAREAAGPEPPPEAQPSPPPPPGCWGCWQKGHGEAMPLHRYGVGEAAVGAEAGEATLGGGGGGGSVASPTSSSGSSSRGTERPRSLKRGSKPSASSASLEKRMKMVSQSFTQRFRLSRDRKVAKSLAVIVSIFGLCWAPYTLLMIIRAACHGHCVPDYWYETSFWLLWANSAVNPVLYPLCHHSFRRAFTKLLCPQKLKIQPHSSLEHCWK

[3] = system: obese animal after olanzapine treatment; design: method as in PMID 11985350, PMID 22695490; conditions: cited from earlier work
obese adults = system: obese adults; design: method as in earlier work; conditions: cited from earlier work
induced obesity in mice = system: induced obesity in mice; design: method as in PMID 29802412; conditions: i.p. 10 mg/kg b.w. for 14 days; cited from earlier work
[4] = system: rats fed a palatable diet; assay: Model of excessive eating: body weight, calorie intake, fat pads; format: in vivo, female Wistar rats
Experimental: Experiments were performed on female Wistar rats with an initial body weight of 140–160 g. The animals were housed in plastic cages (2 rats per cage) at a constant room temperature of 22 ± 2 °C, with a 12:12 h light/dark cycle. Water and food were available ad libitum. The randomly established experimental groups consisted of 6 rats for pharmacological studies and 3 rats for pharmacokinetic studies. All experiments were conducted in accordance with the Guide to the Care and Use of Experimental Animals, and were approved by the Jagiellonian University in Krakow Local Ethics Committee for Experiments on Animals (Permission No: 185/2017, 220/2019 and 223A/2019).
Female rats were randomly divided into several groups (n = 6) and studied for 4 weeks. The groups were as follows: standard diet + vehicle, palatable diet + vehicle, palatable diet + KSK-60 (1 mg/kg), palatable diet + KSK-60 (10 mg/kg), palatable diet + KSK-74 (1 mg/kg), palatable diet + KSK-74 (10 mg/kg), palatable diet + phentermine (7 mg/kg).
The studies for the 1 mg/kg b.w. and 10 mg/kg b.w. doses were performed at different times, so the parameters studied were compared to the respective control groups.
Rats fed a palatable diet had access to a diet consisting of milk chocolate with nuts, cheese, salted peanuts, and 7% condensed milk, and simultaneously to a standard feed (Labofeed B, Morawski Manufacturer Feed, Poland) for 4 weeks. The water was available ad libitum. Animals had access to palatable products, but also to the standard feed. Most importantly, feeding was not in any way forced, as in other models where animals were fed only a high-fat diet, or temporarily deprived of food (binge eating models). In the case of our model, rats decided themselves when, what, and how much to eat. The weight was evaluated daily. Calorie intake was evaluated three times a week. A palatable diet contained 100 g of peanuts—612 kcal; 100 mL of condensed milk—131 kcal; 100 g of milk chocolate—529 kcal; and 100 g of cheese—325 kcal. The standard diet contained 100 g of feed—280 kcal. Standard diet (fats 8%, carbohydrates 67%, proteins 25%) contained 100 g feed—280 kcal.
The palatable control group (palatable diet + vehicle) received vehicle (1% Tween 80 i.p., daily, for 4 weeks), while palatable test groups were injected i.p. with KSK-60 (1 mg or 10 mg/kg i.p, daily, for 4 weeks), KSK-74 (1 mg/kg or 10 mg/kg i.p, daily, for 4 weeks), or phentermine (7 mg/kg i.p., daily, for 4 weeks), respectively.
On the 31st day, 20 min after i.p. administration of heparin (5000 units/rat) and thiopental (70 mg/kg b.w.), animals were sacrificed, and plasma as well as peritoneal fat pads were collected (food was stopped for 6 h prior to organ, tissue, and plasma collection) for further study.

[5] = system: rats fed a palatable diet; assay: Plasma triglyceride and corticosterone levels in the model of excessive eating; format: in vivo, female Wistar rats; conditions: KSK 10 mg/kg, phentermine 7 mg/kg
Experimental: Blood was collected from the left carotid artery and then centrifuged at 600× g (15 min, 4 °C) to obtain plasma.
To determine plasma triglyceride levels, standard enzymatic and spectrophotometric tests (Cat. No 1-053-A150, Biomaxima S.A., Lublin, Poland) were used. The ELISA Kit (Item No. 501320, Cayman Chemical, Ann Arbor, MI, USA) was used to determine corticosterone levels in plasma.

[6] = system: peritoneal adipose tissue; assay: Leptin, resistin, IL-6 and MCP-1 levels in adipose tissue (ELISA); format: in vivo, female Wistar rats; conditions: KSK 10 mg/kg i.p., phentermine 7 mg/kg
Experimental: The frozen peritoneal adipose tissue was weighed, and homogenates were prepared by homogenizing 1 g of tissue in 4 mL of 0.1 M phosphate buffer, pH 7.4, using the IKA-ULTRA-TURRAX T8 homogenizer. The adipose tissue homogenates were then used for biochemical assays.
To determine the levels of leptin, resistin, IL-6, and MCP-1 in adipose tissue, the standard ELISA Kit (Cat. No E0561Ra, Cat. No E0211Ra, Cat. No E0135Ra, Cat. No E0193Ra, Bioassay Technology Laboratory, Shanghai, China) was used. To determine the levels of protein, a standard spectrophotometric test (Cat. No 1-008-B210, Biomaxima S.A. Lublin, Poland) was used.

adipose tissue = assay: Histological examination of adipose tissue (Masson's trichrome); format: in vivo, female Wistar rats; conditions: palatable diet
Experimental: Adipose tissue samples were prepared for histology using Masson’s trichrome stain (Merck) by fixation in 4% formaldehyde, dehydration in graded alcohol, and embedded in paraffin. The tissue samples were then sectioned using a microtome of 5 μm thickness. Six random fields from each section were analyzed in a blinded manner with an Olympus BX41 light microscope (Olympus, Tokyo, Japan) at magnifications of ×20, ×40 and ×100, and digital images were captured with an Olympus UC90 color camera. The quantitation of the number of adipocytes was performed in eight fields/slide with ×100 objective using an image analysis system: CellSensDimension (Olympus, Tokyo, Japan). The numerical density of the adipocytes was obtained by counting the total number of adipocytes per high-power field ([…]), and then this number was converted to 0.1 mm^2. According to stereometric rules, adipocytes tangent to the left and top edges of the image field were not counted. A semi-quantitative scale was used to assess the inflammatory response in adipose tissue. The following were evaluated on a subjective scale: inflammatory cell infiltration between adipocytes (0—normal, 1—few cells, 2—local clusters, and 3—extensive infiltrates), perivascular infiltration of immune cells (0—normal, 1—few cells, and 2—ring of inflammatory cells), widening of the septum (0—normal and 1—widening), and capillary congestion (0—normal and 1—congestion). A sum calculated from independently assessed values was calculated for each animal as an index of inflammation.

CN(C)[C@@H]1CCN(CCCOc2ccc(-c3ccc(C#N)cc3)cc2)C1 [Compound A-331440]
reason for exclusion from clinical trials [1]: genotoxicity
body weight (mice fed a high-fat diet): induced weight loss comparable to mice fed a low-fat diet

CC(=O)c1ccc(OCCCCCCN2CCN(c3ccncc3)CC2)cc1 [KSK-59]
Ki (sigma-1 receptor): 0.0378 µM
inhibition of weight gain [2]: high efficacy in inhibiting weight gain
Ki (sigma-2 receptor): 0.151 µM

CC(=O)c1ccc(OCCCCCCCCN2CCN(c3ccncc3)CC2)cc1 [KSK-73]
Ki (sigma-1 receptor): 0.408 µM
affinity ratio H3/sigma-2 receptors (H3R): 0.68
inhibition of weight gain [2]: high efficacy in inhibiting weight gain
Ki (sigma-2 receptor): 0.0597 µM

CNCCc1ccccn1 [Betahistine, reference compound]
body weight [3]: induced significant weight loss
reduction of body weight and waist circumference compared with Orlistat (obese adults): did not show significant differences
high-density lipoprotein (HDL) levels, long-term administration ([2]; rat model of excessive eating): increases high-density lipoprotein (HDL) levels
weight gain, long-term administration ([2]; rat model of excessive eating): slows weight gain

Clc1ccc(CCCOCCCN2CCCCC2)cc1 [Pitolisant]
body weight and metabolic disturbances (induced obesity in mice): positive influence on body weight, glucose tolerance, and lipid profile

CC(C)(N)Cc1ccccc1 [phentermine, reference compound]
amount of peritoneal fat pads vs palatable diet + vehicle ([4]; KSK 10 mg/kg, phentermine 7 mg/kg, end of experiment): fewer peritoneal fat pads
calorie intake vs control group fed palatable feed ([4]; i.p. 28 days, KSK 10 mg/kg b.w., phentermine 7 mg/kg b.w.): did not significantly influence the amount of calories consumed
body weight gain vs palatable diet + vehicle ([4]; i.p. daily 4 weeks, KSK-60/KSK-74 10 mg/kg b.w., phentermine 7 mg/kg): gained less weight
plasma triglyceride levels vs palatable diet + vehicle [5]: lower plasma triglyceride levels
resistin levels in adipose tissue vs palatable diet + vehicle [6]: did not influence
leptin levels in adipose tissue ([6]; vs palatable diet + vehicle unless worded otherwise): did not influence
capillary congestion and crown-like structures in adipose tissue (adipose tissue; 7 mg/kg): marked capillary congestion and frequent appearance of crown-like structures
inflammatory infiltrates in adipose tissue (histological description) (adipose tissue; KSK 10 mg/kg, phentermine 7 mg/kg): slightly less inflammatory infiltrates
number of adipocytes per 0.1 mm^2 of cross-sectional area (adipose tissue; KSK 10 mg/kg, phentermine 7 mg/kg, means ± SD, n = 6): more similar to the results of the palatable diet + vehicle group
inflammatory index of the adipose tissue (adipose tissue; KSK 10 mg/kg, phentermine 7 mg/kg, standard diet + vehicle 0.5 ± 0.34): 4.16 ± 0.48
number of rats, Capillary Congestion grade 1-Congestion (adipose tissue; n = 6 per group): 6
number of rats, Inflammatory Cell Infiltration grade 1-Few Cells (adipose tissue; n = 6 per group): 4
number of rats, Inflammatory Cell Infiltration grade 2-Local Clusters (adipose tissue; n = 6 per group): 2
number of rats, Perivascular Infiltration grade 0-Normal (adipose tissue; n = 6 per group): 1
number of rats, Perivascular Infiltration grade 1-Few Cells (adipose tissue; n = 6 per group): 4
number of rats, Perivascular Infiltration grade 2-Ring of Cells (adipose tissue; n = 6 per group): 1
number of rats, Widening of the Septum grade 0-Normal (adipose tissue; n = 6 per group): 1
number of rats, Widening of the Septum grade 1-Widening (adipose tissue; n = 6 per group): 5
